Columns and labels:
Assay type in all cases: in vivo
[1] = system: Housefly [Musca domestica]; assay: Housefly contact mortality in dishes (HF), 48 hours; conditions: μg of test compound per 25 female flies
Summary of the method: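 Dry-film exposure of 25 female houseflies per cage, 48 h; LC50 as μg per 25 flies.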

[2] = system: Cabbage Looper [Trichoplusia ni (Hubner)]; assay: Cabbage looper leaf dip (CL), 3-5 days; conditions: percent in solution, second-instar larvae
Summary of the method: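 Steps: dilute compound in 50-50 acetone-water from 0.1% downward; immerse cotyledon pieces 2-3 s and dry; place in humid petri dishes with five second-instar larvae; record mortality at 3-5 days. Dosage-mortality curves yield LC50 as percent in solution.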

[3] = system: Tobacco Budworm [Heliothis virescens (Fabricius)] eggs; assay: Tobacco budworm eggs (TBW-E); conditions: percent in solution; 2-day old eggs
Summary of the method: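 Mortality of dipped eggs served as read-out, recorded after untreated controls hatched and began feeding. Treatments used acetone solutions from 0.1% downward, with eggs incubated at 78° F; LC50 is expressed as percent of compound in the solution.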

[4] = system: Black Bean Aphid [Aphis fabae (Scop.)]; assay: Black bean aphid spray test on nasturtium (BBA), 48 hours; conditions: percent of test compound in sprayed solution
Method: The compounds in Tables 1 and 2 above were tested for insecticidal activity using the following testing procedures. LC50 values, based on the results of these tests and calculated according to dosage-mortality curves, are expressed in Table 3.
Black Bean Aphid [Aphis fabae (Scop.)]:
Nasturtium plants (Tropaeolum sp.) approximately 5 cm tall, were transplanted into sandy loam soil in small cups and infested with 25-50 black bean aphids of mixed ages. Twenty-four hours later they were sprayed to the point of runoff with 50-50 acetone-water solutions of the test compounds. Treated plants were held in the greenhouse and mortality was recorded after 48 hours. Test concentrations ranged from 0.05% downward. The LC-50 value is expressed below in Table 3 under the heading "BBA" in terms of percent of the test compound in the sprayed solution.

| SMILES | LC50 HF [1] [µg] | LC50 CL [2] [%] | LC50 TBW E (eggs) [3] [%] | LC50 BBA [4] [%] |
| --- | --- | --- | --- | --- |
| CC(C)C(=Nc1ccc(C#N)c(F)c1)OCc1cccc(Oc2ccc(F)cc2)c1 [Compound 222] | 32 | 0.0015 | > 0.1 | 0.01 |
| COc1ccc(Oc2cccc(COC(=Nc3ccc(Cl)c(Cl)c3)C(C)C)c2)cc1 [Compound 223] | 43 | 0.008 | > 0.1 | 0.003 |
| CC(C)(Cl)C(=Nc1ccc(F)c(Cl)c1)OCc1cccc(Oc2ccc(F)cc2)c1 [Compound 224] | > 100 | 0.001 | > 0.1 | 0.05 |
| CC(C)C(=Nc1ccc(C#N)cc1)OCc1cccc(Oc2ccc(F)cc2)c1 [Compound 227] | 10 | 0.0015 | 0.1 | 0.01 |
| CC(C)C(=Nc1cccc(Br)c1)OCc1cccc(Oc2ccc(F)cc2)c1 [Compound 229] | 20 | 0.0005 | > 0.1 | 0.006 |
| Cc1ccc(Oc2cccc(COC(=Nc3ccc(F)cc3)C(C)C)c2)cc1 [Compound 231] | > 100 | 0.003 | > 0.1 | 0.01 |
| CC(C)C(=Nc1c(F)c(F)c(F)c(F)c1F)OCc1cccc(Oc2ccc(F)cc2F)c1 [Compound 232] | > 100 | 0.004 | > 0.1 | > 0.05 |
| CC(C)C(=Nc1ccc(C#N)c(F)c1)OCc1cccc(Oc2ccccc2)c1 [Compound 233] | 10 | 0.0017 | 0.09 | 0.01 |
| CC(C)C(=Nc1ccc(C(C)(C)C)cc1)OCc1cccc(Oc2ccc(F)cc2)c1 [Compound 235] | > 100 | 0.004 | > 0.1 | 0.01 |
| Cc1cc(N=C(OCc2cccc(Oc3ccc(F)cc3)c2)C(C)C)ccc1F [Compound 236] | 7 | 0.0018 | 0.06 | 0.003 |
| CC(C)C(=Nc1ccc(Cl)cc1)OCc1cccc(Oc2ccc(Br)cc2)c1 [Compound 237] | 50 | 0.0006 | 0.075 | 0.01 |
| CC(C)C(=Nc1ccc2c(c1)OC(C)(C)O2)OCc1cccc(Oc2ccc(Cl)cc2)c1 [Compound 241] | > 100 | 0.0004 | > 0.1 | < 0.05 |
| CC(C)C(=Nc1ccc2c(c1)CCO2)OCc1cccc(Oc2ccccc2)c1 [Compound 243] | 9 | 0.005 | > 0.1 | 0.01 |
| CC(C)C(=Nc1ccc2c(c1)OCO2)OCc1cccc(Oc2ccc(C(F)(F)F)cc2)c1 [Compound 246] | 60 | 0.004 | > 0.1 | > 0.05 |
| CC(C)C(=Nc1ccc(F)c(Cl)c1)OCc1cccc(Oc2ccc(C(F)(F)F)cc2)c1 [Compound 247] | > 100 | 0.009 | > 0.1 | > 0.05 |
| COc1cc(N=C(OCc2cccc(Oc3ccccc3)c2)C(C)C)cc(OC)c1OC [Compound 248] | 40 | 0.02 | > 0.1 | > 0.05 |
| Cc1cccc(N=C(OCc2cccc(Oc3ccccc3)c2)C(C)C)c1C [Compound 249] | 36 | 0.0025 | 0.035 | 0.0003 |
| Cc1ccc(C)c(N=C(OCc2cccc(Oc3ccccc3)c2)C(C)C)c1 [Compound 250] | 38 | 0.004 | 0.038 | 0.0006 |
| CC(C)C(=Nc1ccc(Br)c(Br)c1)OCc1cccc(Oc2ccc(F)cc2)c1 [Compound 251] | 25 | 0.0005 | 0.06 | 0.001 |
| CC(C)C(=Nc1ccc(Br)c(Br)c1)OCc1cccc(Oc2ccccc2)c1 [Compound 252] | 34 | 0.0035 | 0.04 | 0.002 |

| SMILES | LC50 HF [1] [µg] | LC50 CL [2] [%] | LC50 TBW E (eggs) [3] [%] | LC50 BBA [4] [%] |
| --- | --- | --- | --- | --- |
| CC(C)C(=Nc1cccc(Cl)c1)OCc1cccc(Oc2ccc(Br)cc2)c1 [Compound 260] | 22 | 0.00075 | > 0.1 | 0.006 |
| CCC(C)C(=Nc1ccc(F)c(Cl)c1)OCc1ccc(F)c(Oc2ccccc2)c1 (stereo not shown) [Compound 261] | 24 | 0.001 | 0.05 | 0.002 |
| Cc1ccc(Cl)cc1N=C(OCc1cccc(Oc2ccccc2)c1)C(C)C [Compound 263] | > 100 | 0.05 | > 0.1 | > 0.05 |
| COc1ccc(Cl)cc1N=C(OCc1cccc(Oc2ccccc2)c1)C(C)C [Compound 264] | > 100 | 0.03 | > 0.1 | > 0.05 |
| CC(C)C(=Nc1ccc(F)cc1)OCc1cccc(Oc2ccc(F)c(F)c2)c1 [Compound 265] | 10 | 0.00025 | 0.07 | > 0.05 |
| CC(C)C(=Nc1cccc(SC(F)(F)F)c1)OCc1cccc(Oc2ccc(F)cc2)c1 [Compound 272] | > 100 | 0.0024 | > 0.1 | > 0.05 |
| CC(C)C(=Nc1ccc2c(c1)OCO2)OCc1cc(Oc2ccc(F)cc2)ccc1Cl [Compound 274] | > 100 | 0.1 | > 0.1 | > 0.05 |
| CC(C)C(=Nc1ccc(F)c(Cl)c1)OCc1cc(F)cc(Oc2ccc(F)cc2)c1 [Compound 327] | > 100 | 0.005 | > 0.1 | > 0.05 |
| CC(C)CC(=Nc1ccc(C(C)C)cc1)OCc1cccc(Oc2ccc(F)cc2)c1 [Compound 329] | 7 | 0.033 | > 0.1 | > 0.05 |
| CC(C)C(=Nc1ccc(F)c(Cl)c1)OCc1cccc(Oc2ccc(I)cc2)c1 [Compound 447] | 33 | 0.0009 | > 0.1 | > 0.05 |
| CC(C)C(=Nc1ccc(F)c(Cl)c1)OCc1ccc(Cl)c(Oc2ccc(F)cc2)c1 [Compound 448] | 16 | 0.003 | 0.03 | > 0.05 |
| Fc1c(F)c(F)c(COC(=Nc2cccc(Cl)c2Cl)C(Cl)Cl)c(F)c1F [Compound 454] | > 100 | 0.03 | > 0.1 | > 0.05 |
| Cc1c(COC(=Nc2ccc(Cl)cc2)C(C)C)cccc1-c1ccccc1 [Compound 455] | > 100 | 0.0025 | > 0.1 | 0.01 |
| Cc1c(COC(=Nc2ccc(F)cc2)C(C)C)cccc1-c1ccccc1 [Compound 458] | 100 | 0.007 | > 0.05 | > 0.05 |
| CC(C)C(=Nc1ccc2c(c1)OC(C)(C)O2)OCc1cccc(Oc2ccc(Cl)cc2)n1 [Compound 468] | 50 | > 0.1 | > 0.1 | 0.05 |
| CC(C)C(=Nc1cccc(C(F)(F)F)c1)OCc1cccc(Oc2ccncc2)c1 [Compound 469] | 40 | 0.02 | > 0.1 | > 0.05 |
| CC(C)C(=Nc1ccc(F)c(Cl)c1)OCc1cccc(Oc2ccncc2)c1 [Compound 470] | 25 | 0.02 | > 0.1 | > 0.05 |
| C=CCOc1cccc(COC(=Nc2cccc(C(F)(F)F)c2)C(C)C)c1 [Compound 480] | > 100 | 0.01 | > 0.1 | > 0.05 |
| CC(C)C(=Nc1ccc(F)c(Cl)c1)OC(C)c1cccc(Oc2ccccc2)n1 (stereo not shown) [Compound 498] | 49 | 0.002 | > 0.1 | > 0.05 |
| CC(C)C(=Nc1cccc(C(F)(F)F)c1)OC(C)c1cccc(Oc2ccccc2)n1 (stereo not shown) [Compound 499] | 63 | 0.0024 | > 0.1 | > 0.05 |
